Measured values taken from ChEMBL document CHEMBL1154268, “Bioactive guanidine alkaloids from two Caribbean marine sponges” (J Nat Prod, 2009).

Key:
HeLa = assay: Cytotoxicity against human HeLa cells by sulforhodamine B assay; type: functional; conditions: read-out: TC50 (the source's name)
Plasmodium falciparum = assay: Antimalarial activity against chloroquine-resistant Plasmodium falciparum FcB1/Columbia infected in human erythrocytes assessed as inhibition of [G-3H]hypoxanthine incorporation after 24 hrs by scintillation counting; type: functional, organism-based
[1] = Selective index, ratio of TC50 for human HeLa cells to IC50 for Plasmodium falciparum FcB1/Columbia; type: functional
HT-29 = assay: Growth inhibition of human HT-29 cells by sulforhodamine B assay; type: functional
MDA-MB-231 = assay: Growth inhibition of human MDA-MB-231 cells by sulforhodamine B assay; type: functional; conditions: for CC50: read-out: LC50 (the source's name)
A549 = assay: Growth inhibition of human A549 cells by sulforhodamine B assay; type: functional; conditions: for CC50: read-out: LC50 (the source's name)
Vero = assay: Cytotoxicity against african green monkey Vero cells; type: cell-based; conditions: chlorocebus sabaeus

SMILES: CCCCCCCCC[C@@H]1C[C@@H]2CC[C@H]3[C@@H](C(=O)OCCCCCCCCC[C@H]4NC(=N)N5CCCC5=C4C(=O)OCCCCNC(=N)N)[C@@H](C)N=C(N1)N23 [BATZELLADINE A]
- CC50 (HeLa): 2.9 µM
- IC50 (Plasmodium falciparum): 0.3 µM
- Selectivity Index [1]: 9.7

SMILES: CCCCCCCCC[C@@H]1C[C@@H]2CC[C@H]3[C@@H](C(=O)OC(C)CCCCCCC[C@@H]4C[C@@H]5CC[C@@H]6C[C@H](C)NC(=N4)N65)[C@@H](C)N=C(N1)N23 (some centres undefined) [BATZELLADINE L]
- CC50 (HeLa): < 0.1 µM
- IC50 (Plasmodium falciparum): 0.3 µM
- Selectivity Index [1]: <1

SMILES: CCCCCCC[C@@H]1C[C@@H]2CCc3c(C(=O)O)c(C)nc([n+]32)N1 [CLATHRIADIC ACID]
- GI50 (HT-29): > 30 µM
- LC50 (concentration killing 50% of cells) (HT-29): > 30 µM
- TGI (HT-29): > 30 µM
- IC50 (Plasmodium falciparum): 2.3 µM
- GI50 (MDA-MB-231): 13.5 µM
- TGI (MDA-MB-231): > 30 µM
- CC50 (MDA-MB-231): > 30 µM
- GI50 (A549): > 30 µM
- TGI (A549): > 30 µM
- CC50 (A549): > 30 µM

SMILES: CCCCCCCCC[C@@H]1C[C@@H]2CCc3c(C(=O)OCCCCNC(=N)N)c(CCCCC)nc([n+]32)N1 [DIHOMODEHYDROBATZELLADINE C]
- GI50 (HT-29): 3.1 µM
- LC50 (concentration killing 50% of cells) (HT-29): 8.2 µM
- TGI (HT-29): 5.1 µM
- IC50 (Plasmodium falciparum): 4.5 µM
- GI50 (MDA-MB-231): 6.1 µM
- TGI (MDA-MB-231): 9.8 µM
- CC50 (MDA-MB-231): 15.6 µM
- GI50 (A549): 4.7 µM
- TGI (A549): 8.2 µM
- CC50 (A549): 13.1 µM

SMILES: CCCCCCC[C@@H]1C[C@@H]2CC[C@H]3[C@@H](C(=O)OCCCCCCCCC[C@H]4NC(=N)N5CCCC5=C4C(=O)OCCCCNC(=N)N)[C@@H](C)N=C(N1)N23 [DINORBATZELLADINE A]
- GI50 (HT-29): 1.9 µM
- LC50 (concentration killing 50% of cells) (HT-29): 7.6 µM
- TGI (HT-29): 4.2 µM
- IC50 (Plasmodium falciparum): 0.9 µM
- GI50 (MDA-MB-231): 3 µM
- TGI (MDA-MB-231): 3.8 µM
- CC50 (MDA-MB-231): 4.6 µM
- GI50 (A549): 4.9 µM
- TGI (A549): 5.1 µM
- CC50 (A549): 5.4 µM

SMILES: CCCCCCC[C@@H]1C[C@@H]2CCc3c(C(=O)OCCCCCCC[C@H]4NC(=N)N5CCCC5=C4C(=O)OCCCCNC(=N)N)c(C)nc([n+]32)N1 [DINORDEHYDROBATZELLADINE B]
- GI50 (HT-29): 6.2 µM
- LC50 (concentration killing 50% of cells) (HT-29): > 14 µM
- TGI (HT-29): > 14 µM
- IC50 (Plasmodium falciparum): 0.8 µM
- GI50 (A549): 7.9 µM
- TGI (A549): > 14 µM
- CC50 (A549): > 14 µM

SMILES: CCCCCCCC[C@@H]1C[C@@H]2CC[C@H]3[C@@H](C(=O)OCCCCCCCCC[C@H]4NC(=N)N5CCCC5=C4C(=O)OCCCCNC(=N)N)[C@@H](C)N=C(N1)N23 [NORBATZELLADINE A]
- GI50 (HT-29): 1.6 µM
- LC50 (concentration killing 50% of cells) (HT-29): 5.7 µM
- TGI (HT-29): 3.2 µM
- CC50 (HeLa): 4.7 µM
- IC50 (Plasmodium falciparum): 0.2 µM
- Selectivity Index [1]: 23.5
- GI50 (MDA-MB-231): 3.8 µM
- TGI (MDA-MB-231): 6.4 µM
- CC50 (MDA-MB-231): 11.4 µM
- GI50 (A549): 2.1 µM
- TGI (A549): 4.6 µM
- CC50 (A549): 8.6 µM

SMILES: CCCCCCCC[C@@H]1C[C@@H]2CC[C@H]3[C@@H](C(=O)OC(C)CCCCCCC[C@@H]4C[C@@H]5CC[C@@H]6C[C@H](C)NC(=N4)N65)[C@@H](C)N=C(N1)N23 (some centres undefined) [NORBATZELLADINE L]
- GI50 (HT-29): 1.2 µM
- LC50 (concentration killing 50% of cells) (HT-29): 4 µM
- TGI (HT-29): 2.2 µM
- IC50 (Plasmodium falciparum): 0.4 µM
- GI50 (MDA-MB-231): 0.7 µM
- TGI (MDA-MB-231): 1.9 µM
- CC50 (MDA-MB-231): 4.8 µM
- GI50 (A549): 1.1 µM
- TGI (A549): 2.1 µM
- CC50 (A549): 4.2 µM

SMILES: CC[C@H]1CCCC[C@@]2(C[C@@H]3CC[C@@H]4[C@H](C(=O)OCCCCCCCCCCCCCCCC(=O)N(CCCN)CCCCN)[C@]5(CCC[C@@H](C)O5)NC(=[N+]34)N2)O1.[Cl-] [PTILOMYCALIN A]
- CC50 (HeLa): 0.1 µM
- IC50 (Plasmodium falciparum): 0.1 µM
- Selectivity Index [1]: 1.4
- Activity (Vero): Non-toxic
